Some test systems named below: 786-0 renal; SK-MEL-5 melanoma; MALME-3M melanoma; SR leukemia; COLO 205 colon; HOP-92 NSCLC; TK-10 renal; HT29 colon.
Holding throughout (experiment): DTP human tumour cell line panel, 48 h

SMILES strings stand for the structures.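 Grown in 96-well plates, cells were treated for 48 hours with each compound at five concentrations. Insufficient inhibition: endpoint recorded as highest concentration tested. GI50 marks 50% less growth. TGI: total growth inhibition.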

This note sets out measurements from PubChem BioAssay (NCI).

On to `O=[N+]([O-])c1ccc(CI)cc1`, for which the GI50 in the assay on 786-0 renal was 4.71 µM; in the assay with SK-MEL-5 melanoma, 1.99 µM; with MALME-3M melanoma, 2.15 µM; in the assay on SR leukemia it was 2.24 µM; in the assay on COLO 205 colon it was 2 µM; in the assay on HOP-92 NSCLC, 4.25 µM. In the assay on TK-10 renal, the GI50 was 1.85 µM. In addition, the TGI in the assay on 786-0 renal is 16.4 µM; in the assay with SK-MEL-5 melanoma, 4.41 µM; with MALME-3M melanoma, 4.63 µM; in the assay on SR leukemia, 10.3 µM; in the assay on COLO 205 colon it was 3.76 µM; with HOP-92 NSCLC it was 16.5 µM. Besides, the TGI in the assay with TK-10 renal worked out at 3.32 µM.
As for `C[C@H]1CN[C@@H]2[C@@H](C)[C@H]3[C@@H](C[C@H]4[C@@H]5CC[C@H]6C[C@@H](N)CC[C@]6(C)[C@H]5CC[C@]34C)O[C@@]2(O)C1`, the TGI came to 3.66 µM in the assay on 786-0 renal; 3.9 µM in the assay with HT29 colon; 10.4 µM in the assay on SK-MEL-5 melanoma; 3.23 µM in the assay on MALME-3M melanoma; 7.69 µM in the assay with COLO 205 colon; 11.4 µM in the assay on HOP-92 NSCLC. Also, the TGI in the assay with TK-10 renal came to 11.7 µM.
Take `CCCCCCCN=C(N)c1ccc(N2CCN(c3ccc(C(N)=NCCCCCCC)cc3)CC2)cc1`: the GI50 with 786-0 renal is 0.596 µM; in the assay on HT29 colon, 2.98 µM; in the assay on COLO 205 colon, 1.54 µM; in the assay on HOP-92 NSCLC, 0.463 µM; with TK-10 renal, 0.146 µM. Besides, the TGI in the assay on 786-0 renal is above 100 µM; with HT29 colon it was above 100 µM; in the assay on SK-MEL-5 melanoma it was 0.0141 µM; with COLO 205 colon it was above 52.6 µM; with HOP-92 NSCLC it was above 100 µM; in the assay on TK-10 renal it was 1.93 µM.
For `Cc1ccc2c(C3C(C#N)=C(N)Oc4cc5ccccc5cc43)cc(=O)oc2c1` (stereo unspecified), the GI50 in the assay on 786-0 renal was 1.83 µM; in the assay on HT29 colon, 3 µM; with SK-MEL-5 melanoma it was 0.856 µM; with SR leukemia it was 0.525 µM; in the assay on COLO 205 colon it was 2.88 µM; in the assay with HOP-92 NSCLC, 19.7 µM. Further, the GI50 with TK-10 renal is 17.6 µM. For the same compound, the TGI in the assay on 786-0 renal was above 100 µM; with HT29 colon, 13.1 µM; in the assay with SK-MEL-5 melanoma, 19.9 µM; in the assay on SR leukemia, above 100 µM; with COLO 205 colon, 17.3 µM; with HOP-92 NSCLC it was 84 µM. For the same compound, in the assay on TK-10 renal, the total growth inhibition concentration (TGI) was above 100 µM.
As for `COc1ccc(-c2nnc(N3CCN(C(=O)CN4CCN(c5ccccc5)CC4)CC3)nc2-c2ccc(OC)cc2)cc1`, the GI50 is 5.37 µM in the assay with 786-0 renal; 2.99 µM with SK-MEL-5 melanoma; 2.29 µM in the assay on MALME-3M melanoma; 2.57 µM in the assay on COLO 205 colon; 3.49 µM in the assay on HOP-92 NSCLC; 3.52 µM with TK-10 renal. The TGI was 29.3 µM with 786-0 renal; above 100 µM in the assay on SK-MEL-5 melanoma; above 100 µM with MALME-3M melanoma; 57.2 µM in the assay on COLO 205 colon; 24 µM with HOP-92 NSCLC; 47.6 µM in the assay on TK-10 renal.
For the compound `Cn1cc(-c2csc(-c3c[nH]c4ccc(Br)cc34)n2)c2cnccc21`, the GI50 is 1.63 µM in the assay on 786-0 renal; 1.88 µM in the assay with SK-MEL-5 melanoma; 2.23 µM in the assay with MALME-3M melanoma; 2.98 µM with HOP-92 NSCLC; 1.97 µM in the assay on TK-10 renal. Further, the TGI is 3.4 µM in the assay on 786-0 renal; 4.25 µM with SK-MEL-5 melanoma; 3.96 µM in the assay on MALME-3M melanoma; 8.37 µM in the assay with HOP-92 NSCLC; 5.84 µM in the assay with TK-10 renal.
With `O=C(Nc1ccc(Cl)c(C(F)(F)F)c1)c1ccc(NC2=C(Cl)C(=O)N(Cc3ccccc3)C2=O)cc1`, the GI50 with 786-0 renal is 16.2 µM; with HT29 colon, 7.47 µM; in the assay on SR leukemia it was 1.65 µM; in the assay on COLO 205 colon, 19.2 µM; in the assay with HOP-92 NSCLC, 4.34 µM; in the assay on TK-10 renal, 19.4 µM. Besides, the TGI in the assay with 786-0 renal is 32.9 µM; with HT29 colon it was above 100 µM; in the assay on SR leukemia, 4.33 µM; in the assay on COLO 205 colon, 56.8 µM; in the assay on HOP-92 NSCLC, 14.7 µM; with TK-10 renal, 34.4 µM.
As to `CC(C)=CCc1cc(O)cc2c1OC(C=C(C)C)C1=C2C(=O)C2=C(C1=O)S(=O)(=O)CCN2` (stereo unspecified), the GI50 was 5.05 µM in the assay with 786-0 renal; 6.61 µM with HT29 colon; 2.75 µM in the assay with SK-MEL-5 melanoma; 1.69 µM in the assay on MALME-3M melanoma; 5.42 µM in the assay with COLO 205 colon; 6.05 µM in the assay on HOP-92 NSCLC. In the assay with TK-10 renal, the GI50 is above 16.7 µM. Moreover, the TGI was above 16.7 µM in the assay on 786-0 renal; above 16.7 µM in the assay with HT29 colon; 5.05 µM with SK-MEL-5 melanoma; 3.64 µM with MALME-3M melanoma; above 16.7 µM with COLO 205 colon; above 16.7 µM in the assay with HOP-92 NSCLC. In the assay with TK-10 renal, this compound yielded a TGI above 16.7 µM.
`CSc1ccccc1C#C/C=C\C#Cc1ccccc1N`: the GI50 in the assay on 786-0 renal was 16.3 µM; with HT29 colon, 25.1 µM; in the assay on SK-MEL-5 melanoma, 3.71 µM; in the assay on COLO 205 colon it was 13.6 µM. Besides, the TGI was determined as 42.6 µM in the assay with 786-0 renal, 54.8 µM with HT29 colon, 16.4 µM in the assay with SK-MEL-5 melanoma and 29.5 µM in the assay with COLO 205 colon.
Consider `COc1ccc(/C(=C\C=C(C#N)C#N)Sc2nc3ccccc3s2)cc1`, for which the GI50 with 786-0 renal is 1.7 µM; with HT29 colon it was 1.54 µM; with SK-MEL-5 melanoma, 7.87 µM; in the assay with COLO 205 colon, 7.24 µM; in the assay with HOP-92 NSCLC it was 0.717 µM; with TK-10 renal, 5.43 µM. For the same compound, the TGI in the assay on 786-0 renal amounted to 5.66 µM; with HT29 colon, 6.06 µM; in the assay with SK-MEL-5 melanoma, 16.5 µM; with COLO 205 colon it was 17.4 µM; with HOP-92 NSCLC it was 4.14 µM; in the assay with TK-10 renal, 11.8 µM.
On to `COc1ccc(-c2cc(/C=C/C(=O)c3ccc(OC)c(OC)c3)[nH]n2)cc1`, for which the GI50 with 786-0 renal is 1.6 µM; with HT29 colon it was 1.55 µM; in the assay on SK-MEL-5 melanoma, 1.77 µM; in the assay on MALME-3M melanoma, 1.62 µM; in the assay on SR leukemia it was 0.677 µM; in the assay with COLO 205 colon, 1.76 µM. In the assay on TK-10 renal, the GI50 is 2.11 µM. The TGI with 786-0 renal worked out at 3.09 µM; in the assay on HT29 colon, 3.45 µM; with SK-MEL-5 melanoma, 3.72 µM; in the assay on MALME-3M melanoma it was 3.45 µM; in the assay with SR leukemia, 3.74 µM; in the assay with COLO 205 colon, 3.3 µM. In the assay on TK-10 renal, this compound yielded a TGI of 4.31 µM.
For the compound `COc1cccc2c1C(=O)c1c(O)c3c(c(O)c1C2=O)C[C@@](O)(/C(C)=N/NC(=O)c1ccc(Cl)cc1)C[C@@H]3OC1CC(N)C(O)C(C)O1` (stereo partly specified), the GI50 in the assay on 786-0 renal was 0.249 µM; in the assay on HT29 colon, 0.232 µM; with HOP-92 NSCLC it was 0.192 µM; with TK-10 renal, 0.178 µM. In addition, the TGI was 1.69 µM in the assay with 786-0 renal, 1.41 µM with HT29 colon, 0.751 µM in the assay on HOP-92 NSCLC and 0.723 µM in the assay with TK-10 renal.
